Key:
[1] = target: T1, cyclodiphosphate synthase IspF (Escherichia coli, UniProt P62617); assay: HPLC-based assay of CMP formation by purified IspF; format: biochemical
T1 sequence (P62617 1-159): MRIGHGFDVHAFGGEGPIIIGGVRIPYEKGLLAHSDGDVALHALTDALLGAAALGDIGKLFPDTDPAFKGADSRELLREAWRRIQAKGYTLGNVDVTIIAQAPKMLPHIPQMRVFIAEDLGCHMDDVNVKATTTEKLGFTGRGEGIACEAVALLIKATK

[2] = target: T1, cyclodiphosphate synthase IspF; assay: HPLC-based assay, […] inhibition of the IspF-MEP complex at […] FDP; format: biochemical; details: read-out: % inhibition at 500 μM

| Compound | AC50 [1] [µM] | inhibition at 500 µM [2] [%] |
| --- | --- | --- |
| C[C@](O)(CO)[C@H](O)CO [ME, 2C-methyl-D-erythritol] | 106 ± 14 |  |
| C[C@](O)(CO)[C@H](O)COP(=O)(O)O [MEP, 2C-methyl-D-erythritol 4-phosphate] | 133 ± 33 |  |
| CC(C)=CCC/C(C)=C/CC/C(C)=C/CO[P@@](=O)(O)OP(=O)(O)O (stereo in doubt) [FDP, farnesyl diphosphate] |  | 43 |

Source: paper PMC3477264 (ACS chemical biology, 2012)
